Results from ChEMBL document CHEMBL4480435, “The impact of binding site waters on the activity/selectivity trade-off of Janus kinase 2 (JAK2) inhibitors” (Bioorg Med Chem, 2019).

Legend:
[1] = species: Homo sapiens; assay: Selectivity ratio of IC50 for JAK1 (unknown origin) to IC50 for JAK2 (unknown origin)
[2] = target: T1, Tyrosine-protein kinase JAK2 (Homo sapiens, UniProt O60674); assay: Inhibition of JAK2 (unknown origin) after 1 hr FRET-based Z'-Lyte assay
[3] = target: T2, Tyrosine-protein kinase JAK1 (Homo sapiens, UniProt P23458); assay: Inhibition of JAK1 (unknown origin) after 1 hr by FRET-based Z'-Lyte assay
[4] = target: T2, Tyrosine-protein kinase JAK1
Description: Inhibition of human recombinant JAK1 (852 to 1142 residues) by Z-Lyte assay

[5] = target: T1, Tyrosine-protein kinase JAK2
Description: Inhibition of human recombinant JAK2 (808 to 1132 residues) by Z-Lyte assay

[6] = target: T2, Tyrosine-protein kinase JAK1; assay: Inhibition of JAK1 (unknown origin) at 20 uM after 1 hr by FRET-based Z'-Lyte assay
[7] = target: T2, Tyrosine-protein kinase JAK1; assay: Inhibition of JAK1 (unknown origin) at 10 uM after 1 hr by FRET-based Z'-Lyte assay

T2 sequence (P23458 whole entry): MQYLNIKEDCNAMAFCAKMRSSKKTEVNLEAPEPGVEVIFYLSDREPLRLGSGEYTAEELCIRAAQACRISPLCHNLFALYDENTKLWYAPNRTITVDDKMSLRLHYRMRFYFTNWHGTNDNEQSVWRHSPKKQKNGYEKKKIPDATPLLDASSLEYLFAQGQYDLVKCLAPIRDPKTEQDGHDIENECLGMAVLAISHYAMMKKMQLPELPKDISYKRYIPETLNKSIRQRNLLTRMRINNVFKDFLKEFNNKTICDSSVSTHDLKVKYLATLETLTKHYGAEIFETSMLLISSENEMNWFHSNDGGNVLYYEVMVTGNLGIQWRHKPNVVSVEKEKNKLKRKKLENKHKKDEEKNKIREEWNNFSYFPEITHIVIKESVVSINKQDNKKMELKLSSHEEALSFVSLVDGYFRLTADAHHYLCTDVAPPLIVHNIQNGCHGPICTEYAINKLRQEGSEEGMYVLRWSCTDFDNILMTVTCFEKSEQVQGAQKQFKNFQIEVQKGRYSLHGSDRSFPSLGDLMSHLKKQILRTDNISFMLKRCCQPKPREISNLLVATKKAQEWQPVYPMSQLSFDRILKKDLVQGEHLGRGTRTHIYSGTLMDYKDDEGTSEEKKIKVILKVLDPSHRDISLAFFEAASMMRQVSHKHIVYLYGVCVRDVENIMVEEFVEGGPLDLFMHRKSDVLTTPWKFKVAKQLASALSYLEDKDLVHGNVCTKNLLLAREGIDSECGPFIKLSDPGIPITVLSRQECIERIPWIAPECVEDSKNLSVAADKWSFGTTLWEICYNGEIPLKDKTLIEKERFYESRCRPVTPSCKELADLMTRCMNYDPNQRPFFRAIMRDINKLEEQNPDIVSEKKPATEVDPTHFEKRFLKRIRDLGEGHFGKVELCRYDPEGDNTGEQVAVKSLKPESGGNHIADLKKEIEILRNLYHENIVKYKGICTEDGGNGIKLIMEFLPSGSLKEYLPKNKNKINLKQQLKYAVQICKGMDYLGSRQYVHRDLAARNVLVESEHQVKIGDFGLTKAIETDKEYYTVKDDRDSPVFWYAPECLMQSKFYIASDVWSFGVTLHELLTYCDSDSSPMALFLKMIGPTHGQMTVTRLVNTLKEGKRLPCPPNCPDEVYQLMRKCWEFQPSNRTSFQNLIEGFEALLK
T1 sequence (O60674 whole entry): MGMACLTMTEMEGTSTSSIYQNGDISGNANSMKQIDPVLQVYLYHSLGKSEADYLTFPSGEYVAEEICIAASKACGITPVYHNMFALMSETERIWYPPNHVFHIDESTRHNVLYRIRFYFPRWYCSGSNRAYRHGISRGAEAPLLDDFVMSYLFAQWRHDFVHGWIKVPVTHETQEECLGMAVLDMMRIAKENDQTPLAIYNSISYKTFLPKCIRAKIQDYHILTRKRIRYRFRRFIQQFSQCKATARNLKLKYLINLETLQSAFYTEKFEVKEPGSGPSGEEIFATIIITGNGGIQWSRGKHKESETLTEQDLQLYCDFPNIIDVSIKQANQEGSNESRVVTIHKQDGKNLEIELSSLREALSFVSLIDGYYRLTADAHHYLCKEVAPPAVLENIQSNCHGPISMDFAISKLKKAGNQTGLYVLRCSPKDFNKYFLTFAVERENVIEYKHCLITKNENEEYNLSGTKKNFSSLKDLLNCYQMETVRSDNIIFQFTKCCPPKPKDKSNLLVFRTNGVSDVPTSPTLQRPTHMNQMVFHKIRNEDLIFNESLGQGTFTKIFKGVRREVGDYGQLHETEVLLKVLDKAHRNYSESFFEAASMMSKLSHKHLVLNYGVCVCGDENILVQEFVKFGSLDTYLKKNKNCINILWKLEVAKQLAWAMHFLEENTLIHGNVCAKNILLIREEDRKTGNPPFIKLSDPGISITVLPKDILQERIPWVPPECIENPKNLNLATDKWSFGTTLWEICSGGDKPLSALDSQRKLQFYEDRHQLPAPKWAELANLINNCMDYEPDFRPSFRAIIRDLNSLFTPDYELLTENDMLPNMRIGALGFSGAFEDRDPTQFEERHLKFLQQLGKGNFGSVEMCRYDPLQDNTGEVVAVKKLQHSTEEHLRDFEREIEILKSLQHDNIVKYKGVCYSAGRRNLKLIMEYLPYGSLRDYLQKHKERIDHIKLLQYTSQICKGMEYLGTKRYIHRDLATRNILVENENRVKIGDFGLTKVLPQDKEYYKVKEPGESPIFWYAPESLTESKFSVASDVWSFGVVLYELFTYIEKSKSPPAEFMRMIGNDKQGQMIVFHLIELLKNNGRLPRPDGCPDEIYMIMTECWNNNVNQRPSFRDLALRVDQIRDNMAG

`Clc1cccc(-n2cnnn2)c1-c1nc(-c2ccc3[nH]ncc3c2)cs1` was tested, and the Ratio IC50 [1] was 12.8, the IC50 [2] was 1.68 µM and the IC50 [3] was 21.6 µM.

With `c1ccc(-n2cnnn2)c(-c2cn(-c3ccc4[nH]ncc4c3)nn2)c1` the Ratio IC50 [1] was 0.9, the IC50 [2] was 9.53 µM and the IC50 [3] was 8.8 µM.

In the case of `Nc1n[nH]c2ccc(NC(=O)c3cccc(Cl)c3Cl)cc12`, the Ratio IC50 [1] is reported as 3.67, the IC50 [2] is reported as 0.411 µM and the IC50 [3] is reported as 1.51 µM.

`Nc1n[nH]c2ccc(NC(=O)c3ccccc3Cl)cc12` showed a Ratio IC50 [1] of 18, an IC50 [2] of 0.101 µM and an IC50 [3] of 1.82 µM.

For `CNS(=O)(=O)C[C@H]1CC[C@H](N(C)c2ncnc3[nH]ccc23)CC1` [OCLACITINIB], the IC50 [4] was 0.01 µM and the IC50 [5] was 0.018 µM.

`Nc1n[nH]c2ccc(-c3cnc(-c4ccccc4-n4cnnn4)s3)cc12` was tested, and the Ratio IC50 [1] was 2.85, the IC50 [2] was 3.25 µM and the IC50 [3] was 9.29 µM.

`Nc1n[nH]c2ccc(NC(=O)c3ccccc3-n3cnnn3)cc12` gave a Ratio IC50 [1] of 5.3, an IC50 [2] of 6.34 µM and an IC50 [3] of 33.9 µM.

In the case of `Nc1n[nH]c2ccc(NC(=O)c3cc(Cl)ccc3Cl)cc12`, the Ratio IC50 [1] is reported as 6.57, the IC50 [2] is reported as 0.023 µM and the IC50 [3] is reported as 0.151 µM.

For `O=C(Nc1ccc2[nH]ncc2c1)c1ccccc1`, the inhibition [6] was 17%.

In the case of `Nc1n[nH]c2ccc(NC(=O)c3ccccc3)cc12`, the Ratio IC50 [1] is reported as 3.78, the IC50 [2] is reported as 2.78 µM and the IC50 [3] is reported as 10.5 µM.

For `CCNc1ccccc1C(=O)Nc1ccc2[nH]nc(N)c2c1`, the Ratio IC50 [1] was 11, the IC50 [2] was 1.97 µM and the IC50 [3] was 22 µM.

`O=C(Nc1ccc2[nH]ncc2c1)c1cccc(-n2cnnn2)c1` gave a Ratio IC50 [1] of 1, an IC50 [2] of 0.718 µM and an IC50 [3] of 0.764 µM.

In the case of `O=C(Nc1ccc2[nH]ncc2c1)c1c(Cl)cccc1-n1cnnn1`, the Ratio IC50 [1] is reported as 14, the IC50 [2] is reported as 0.82 µM and the IC50 [3] is reported as 11.5 µM.

Compound `Nc1n[nH]c2ccc(NC(=O)c3c(Cl)cccc3-n3cnnn3)cc12` has an IC50 [2] of 76.6 µM and an inhibition [7] of 10%.

Work on `O=C(Nc1ccc2[nH]ncc2c1)c1ccccc1Cn1cnnn1` yielded a Ratio IC50 [1] of 2.7, an IC50 [2] of 3.54 µM and an IC50 [3] of 9.67 µM.

With `O=C(Nc1ccc2[nH]ncc2c1)c1ccccc1-n1cnnn1` the Ratio IC50 [1] was 14, the IC50 [2] was 2.38 µM and the IC50 [3] was 33 µM.

In the case of `c1ccc(-n2cnnn2)c(-c2nc(-c3ccc4[nH]ncc4c3)cs2)c1`, the Ratio IC50 [1] is reported as 5, the IC50 [2] is reported as 1.54 µM and the IC50 [3] is reported as 7.94 µM.

For `Nc1n[nH]c2ccc(C(=O)Nc3ccccc3Cl)cc12`, the Ratio IC50 [1] was 18, the IC50 [2] was 0.126 µM and the IC50 [3] was 2.27 µM.

Work on `Nc1n[nH]c2ccc(C(=O)Nc3c(Cl)cccc3Cl)cc12` yielded a Ratio IC50 [1] of 16, an IC50 [2] of 0.028 µM and an IC50 [3] of 0.46 µM.

`CCNc1ccccc1C(=O)Nc1ccc2[nH]ncc2c1` gave a Ratio IC50 [1] of 6, an IC50 [2] of 3.96 µM and an IC50 [3] of 24.1 µM.

Compound `Nc1n[nH]c2ccc(C(=O)Nc3cc(Cl)ccc3Cl)cc12` has a Ratio IC50 [1] of 11, an IC50 [2] of 0.038 µM and an IC50 [3] of 0.414 µM.

For `O=C(Nc1ccc2[nH]ncc2c1)c1ccccc1Cl`, the Ratio IC50 [1] was 18.8, the IC50 [2] was 0.453 µM and the IC50 [3] was 8.53 µM.

`Nc1n[nH]c2ccc(NC(=O)c3cccc(Cl)c3)cc12` gave a Ratio IC50 [1] of 1.63, an IC50 [2] of 0.583 µM and an IC50 [3] of 0.943 µM.

`O=C(Nc1ccc2[nH]ncc2c1)c1cccc(Cn2cnnn2)c1` was tested, and the inhibition [6] was 20%.

In the case of `c1ccc(-n2cnnn2)c(-c2cc(-c3ccc4[nH]ncc4c3)on2)c1`, the Ratio IC50 [1] is reported as 1.65, the IC50 [2] is reported as 2 µM and the IC50 [3] is reported as 3.3 µM.

`Nc1n[nH]c2ccc(C(=O)Nc3ccccc3)cc12` was tested, and the Ratio IC50 [1] was 3.78, the IC50 [2] was 3.23 µM and the IC50 [3] was 10.8 µM.
